Biological target: PI3Kα (p85iSH2(461-568)-p110α(21-1068)-His, BV1075) (Homo sapiens (Human), UniProt P42336)
Assay: PI3K KinaseGlo assay, PI3Kalpha
Assay type: biochemical
Details: for IC50: KinaseGlo, 1 μM ATP

Sequence of PI3Kα (p85iSH2(461-568)-p110α(21-1068)-His, BV1075) (P42336 other isoform, or with tags, fused parts or gaps): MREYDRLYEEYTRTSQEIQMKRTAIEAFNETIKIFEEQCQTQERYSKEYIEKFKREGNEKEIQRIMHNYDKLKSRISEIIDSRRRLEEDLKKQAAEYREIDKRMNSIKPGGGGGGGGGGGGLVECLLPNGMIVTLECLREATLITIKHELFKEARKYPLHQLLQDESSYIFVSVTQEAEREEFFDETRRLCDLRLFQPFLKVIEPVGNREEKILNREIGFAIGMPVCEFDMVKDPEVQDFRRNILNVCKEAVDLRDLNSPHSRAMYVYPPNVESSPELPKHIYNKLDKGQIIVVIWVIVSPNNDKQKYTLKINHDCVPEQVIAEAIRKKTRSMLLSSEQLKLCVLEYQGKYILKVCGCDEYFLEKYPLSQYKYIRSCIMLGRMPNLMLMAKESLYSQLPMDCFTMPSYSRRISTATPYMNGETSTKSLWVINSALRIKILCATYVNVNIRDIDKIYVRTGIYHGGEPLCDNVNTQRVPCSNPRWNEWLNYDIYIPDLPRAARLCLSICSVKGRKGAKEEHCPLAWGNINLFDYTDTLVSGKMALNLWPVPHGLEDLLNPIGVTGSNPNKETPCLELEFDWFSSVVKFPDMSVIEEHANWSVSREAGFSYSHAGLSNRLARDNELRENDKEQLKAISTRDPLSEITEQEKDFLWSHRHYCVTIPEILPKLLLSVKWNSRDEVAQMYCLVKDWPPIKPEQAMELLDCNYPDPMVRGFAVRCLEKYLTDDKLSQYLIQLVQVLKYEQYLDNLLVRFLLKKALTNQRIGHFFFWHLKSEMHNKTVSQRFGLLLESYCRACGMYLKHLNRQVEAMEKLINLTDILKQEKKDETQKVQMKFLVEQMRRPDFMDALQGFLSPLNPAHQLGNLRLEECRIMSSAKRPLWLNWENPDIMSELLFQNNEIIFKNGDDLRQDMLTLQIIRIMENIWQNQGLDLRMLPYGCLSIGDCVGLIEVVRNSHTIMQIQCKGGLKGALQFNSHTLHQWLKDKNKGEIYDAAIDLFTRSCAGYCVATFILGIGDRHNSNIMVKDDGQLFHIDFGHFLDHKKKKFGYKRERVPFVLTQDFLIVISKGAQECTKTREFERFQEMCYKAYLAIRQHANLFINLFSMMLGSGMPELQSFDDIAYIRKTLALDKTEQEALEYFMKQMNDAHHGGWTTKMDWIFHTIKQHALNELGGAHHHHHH

| IC50 (10 nM enzyme, 30 mins) | SMILES | other results |
| --- | --- | --- |
|  | Cc1nc(NC(=O)N2CC[C@H](O)[C@H]2C(N)=O)sc1-c1ccnc(C(C)(C)C)n1.O=C(O)C(F)(F)F [Example 9, (2S,3S)-3-hydroxy-pyrrolidine-1,2-dicarboxylic acid 2-amide 1-{[5-(2-tert-butyl-pyrimidin-4-yl)-4-methyl-thiazol-2-yl]-amide}triflouroacetate] | IC50 (alpha vs. delta selectivity table): 12 nM; Selectivity PI3Kalpha vs. PI3Kdelta (ratio of PI3Kdelta IC50 to PI3Kalpha IC50): 38-fold |
| 76 nM | CCN(CC)c1nccc(-c2sc(NC(=O)N3CC[C@@H]4C[C@@]43C(N)=O)nc2C)n1 [Example 88, (1S,5R)-2-Aza-bicyclo[3.1.0]hexane-1,2-dicarboxylic acid 1-amide 2-{[5-(2-diethylamino-pyrimidin-4-yl)-4-methyl-thiazol-2-yl]-amide}] |  |
| 13 nM | Cc1nc(NC(=O)N2C[C@H](O)C[C@H]2C(N)=O)sc1-c1ccnc(C(C)(C)C)n1 [Example 3, (2S,4R)-4-hydroxy-pyrrolidine-1,2-dicarboxylic acid 2-amide 1-{[5-(2-tert-butyl-pyrimidin-4-yl)-4-methyl-thiazol-2-yl]-amide}triflouroacetate] |  |
| 210 nM | Cc1nc(NC(=O)N2CCC[C@@]2(C)C(N)=O)sc1-c1ccnc(-n2ccnc2C)n1 [Example 102, S)-2-Methyl-pyrrolidine-1,2-dicarboxylic acid 2-amide 1-({4-methyl-5-[2-(2-methyl-imidazol-1-yl)-pyrimidin-4-yl]-thiazol-2-yl}-amide] |  |
| 40 nM | Cc1nc(NC(=O)N2CCC[C@@]2(C)C(N)=O)sc1-c1ccnc(C(C)(C)C(F)(F)F)c1 [Example 47, S)-2-Methyl-pyrrolidine-1,2-dicarboxylic acid 2-amide 1-({4-methyl-5-[2-(2,2,2-trifluoro-1,1-dimethyl-ethyl)-pyridin-4-yl]-thiazol-2-yl}-amide] |  |
| 71 nM | Cc1nc(NC(=O)N2CCC[C@@]2(C)C(N)=O)sc1-c1ccnc(CC2CC2)n1 [Example 110, (S)-2-Methyl-pyrrolidine-1,2-dicarboxylic acid 2-amide 1-{[5-(2-cyclopropylmethyl-pyrimidin-4-yl)-4-methyl-thiazol-2-yl]-amide}] |  |
| 28 nM | COc1ccc(C(C)(C)c2cc(-c3cnc(NC(=O)N4CCC[C@@]4(C)C(N)=O)s3)ccn2)cc1 [Example 124, (S)-2-Methyl-pyrrolidine-1,2-dicarboxylic acid 2-amide 1-[(5-{2-[1-(4-methoxy-phenyl)-1-methyl-ethyl]-pyridin-4-yl}-thiazol-2-yl)-amide]] |  |
| 31 nM | Cc1nc(NC(=O)N2C[C@H](O)C[C@@]2(C)C(N)=O)sc1-c1ccnc(C(C)(C)C)n1 [Example 65, (2S,4R)-4-Hydroxy-2-methyl-pyrrolidine-1,2-dicarboxylic acid 2-amide 1-{[5-(2-tert-butyl-pyrimidin-4-yl)-4-methyl-thiazol-2-yl]-amide}] |  |
| 52 nM | [2H]C([2H])([2H])C(c1nccc(-c2sc(NC(=O)N3CCC[C@@]3(C)C(N)=O)nc2C)n1)(C([2H])([2H])[2H])C([2H])([2H])[2H] [Example 111] |  |
| 190 nM | COc1ccc(C2(c3cc(-c4sc(NC(=O)N5CCC[C@@]5(C)C(N)=O)nc4C)ccn3)CC2)cc1 [Example 54, (S)-2-Methyl-pyrrolidine-1,2-dicarboxylic acid 2-amide 1-[(5-{2-[1-(4-methoxy-phenyl)-cyclopropyl]-pyridin-4-yl}-4-methyl-thiazol-2-yl)-amide]] |  |
| 37 nM | Cc1nc(NC(=O)N2CCC[C@@]2(C)C(N)=O)sc1-c1ccnc(C2(C)CC2)c1 [Example 40, S)-2-Methyl-pyrrolidine-1,2-dicarboxylic acid 2-amide 1-({4-methyl-5-[2-(1-methyl-cyclopropyl)-pyridin-4-yl]-thiazol-2-yl}-amide] |  |
| 250 nM | Cc1nc(NC(=O)N2CCC[C@@]2(C)C(N)=O)sc1-c1ccnc(N(C)CCN(C)C)n1 [Example 80, (S)-2-Methyl-pyrrolidine-1,2-dicarboxylic acid 2-amide 1-[(5-{2-[(2-dimethylamino-ethyl)-methyl-amino]-pyrimidin-4-yl}-4-methyl-thiazol-2-yl)-amide]] |  |
| 140 nM | CCN(Cc1ccccc1)c1nccc(-c2sc(NC(=O)N3CCC[C@@]3(C)C(N)=O)nc2C)n1 [Example 98] |  |
| 15 nM | Cc1nc(NC(=O)N2C[C@@H](O)C[C@H]2C(N)=O)sc1-c1ccnc(C(C)(C)C)c1 [Example 7, (2S,4S)-4-hydroxy-pyrrolidine-1,2-dicarboxylic acid 2-amide 1-{[5-(2-tert-butyl-pyridin-4-yl)-4-methyl-thiazol-2-yl]-amide}] |  |
| 9 nM | Cc1nc(NC(=O)N2CCC[C@@]2(C)C(N)=O)sc1-c1ccnc(C2(C(F)(F)F)CC2)c1 [Example 46, S)-2-Methyl-pyrrolidine-1,2-dicarboxylic acid 2-amide 1-({4-methyl-5-[2-(1-trifluoromethyl-cyclopropyl)-pyridin-4-yl]-thiazol-2-yl}-amide] |  |
| 50 nM | CCN(CC)c1cc(-c2cnc(NC(=O)N3CCC[C@@]3(C)C(N)=O)s2)ccn1 [Example 122, (S)-2-Methyl-pyrrolidine-1,2-dicarboxylic acid 2-amide 1-{[5-(2-diethylamino-pyridin-4-yl)-thiazol-2-yl]-amide}] |  |
| 71 nM | Cc1nc(NC(=O)N2CC(F)(F)C[C@H]2C(N)=O)sc1-c1ccnc(C2(C)CC2)c1 [Example 59, S)-4,4-Difluoro-pyrrolidine-1,2-dicarboxylic acid 2-amide 1-({4-methyl-5-[2-(1-methyl-cyclopropyl)-pyridin-4-yl]-thiazol-2-yl}-amide] |  |
| 49 nM | COC[C@@]1(C(N)=O)CCCN1C(=O)Nc1nc(C)c(-c2ccnc(C(C)(C)C)n2)s1 [Example 112, (R)-2-Methoxymethyl-pyrrolidine-1,2-dicarboxylic acid 2-amide 1-{[5-(2-tert-butyl-pyrimidin-4-yl)-4-methyl-thiazol-2-yl]-amide}] |  |
| 130 nM | Cc1nc(NC(=O)N2CCC[C@]2(C(N)=O)C(F)F)sc1-c1ccnc(C(C)(C)C)n1 [Example 114, (S)-2-Difluoromethyl-pyrrolidine-1,2-dicarboxylic acid 2-amide 1-{[5-(2-tert-butyl-pyrimidin-4-yl)-4-methyl-thiazol-2-yl]-amide}] |  |
| 5 nM | Cc1nc(NC(=O)N2CCC[C@@]2(C)C(N)=O)sc1-c1ccnc(C2(C(F)(F)F)CCC2)c1 [Example 48, S)-2-Methyl-pyrrolidine-1,2-dicarboxylic acid 2-amide 1-({4-methyl-5-[2-(1-trifluoromethyl-cyclobutyl)-pyridin-4-yl]-thiazol-2-yl}-amide] |  |

| SMILES | IC50 (10 nM enzyme, 30 mins) | other results |
| --- | --- | --- |
| CCCc1nccn1-c1cc(-c2sc(NC(=O)N3CC(O)CC3C(N)=O)nc2C)ccc1S(C)(=O)=O [Example 1, (2S,4R)-4-hydroxy-pyrrolidine-1,2-dicarboxylic acid 2-amide 1-({5-[4-methanesulfonyl-3-(2-propyl-imidazol-1-yl)-phenyl]-4-methyl-thiazol-2-yl}-amide)triflouroacetate] | 170 nM |  |
| CC1(c2cc(-c3cnc(NC(=O)N4CCC[C@@]4(C)C(N)=O)s3)ccn2)CC1 [Example 117, S)-2-Methyl-pyrrolidine-1,2-dicarboxylic acid 2-amide 1-({5-[2-(1-methyl-cyclopropyl)-pyridin-4-yl]-thiazol-2-yl}amide] | 26 nM |  |
